These results are taken from ChEMBL document CHEMBL4806963, “Antagonistic peptides for frizzled-1 and frizzled-2” (2013).

The target of assay [1] is Frizzled-2 (Homo sapiens) (UniProt Q14332). Description: Antagonist activity at Wnt3a-stimulated frizzled-2 (unknown origin) expressed in human HEK293superTOP flash cells incubated for 24 hrs by luciferase reporter gene assay. In kind it is functional, cell-based. Particulars: HEK293, filed as antagonist.
Assay [2] has as its target T1, Frizzled-4 (Homo sapiens) (UniProt Q9ULV1).
T1 sequence (whole entry): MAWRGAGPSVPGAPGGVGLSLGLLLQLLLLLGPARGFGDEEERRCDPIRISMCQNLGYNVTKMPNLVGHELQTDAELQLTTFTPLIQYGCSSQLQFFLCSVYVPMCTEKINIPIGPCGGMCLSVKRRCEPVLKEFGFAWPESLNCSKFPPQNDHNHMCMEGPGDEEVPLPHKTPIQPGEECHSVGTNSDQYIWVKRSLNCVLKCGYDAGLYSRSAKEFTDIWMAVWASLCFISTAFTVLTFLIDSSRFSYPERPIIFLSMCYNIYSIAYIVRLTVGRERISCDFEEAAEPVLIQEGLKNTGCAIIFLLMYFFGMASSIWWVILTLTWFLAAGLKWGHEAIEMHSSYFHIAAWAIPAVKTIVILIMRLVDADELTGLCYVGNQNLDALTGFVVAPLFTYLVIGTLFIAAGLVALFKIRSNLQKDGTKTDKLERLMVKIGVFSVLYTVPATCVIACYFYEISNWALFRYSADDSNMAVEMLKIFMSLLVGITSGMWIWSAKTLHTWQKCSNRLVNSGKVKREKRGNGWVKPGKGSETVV
Description: Antagonist activity at Wnt3a-stimulaed frizzled-4 (unknown origin) expressed in human HEK293superTOP flash cells incubated for 24 hrs by luciferase reporter gene assay. In kind it is functional, cell-based. Particulars: HEK293.

Assay [3] concerns the target Frizzled-1 (Homo sapiens) (UniProt Q9UP38). Nature of the assay: Antagonist activity at frizzled-1 (unknown origin) expressed in rat C-FIT cells assessed as inhibition of Wnt5a-stimulated cell differentiation changes by measuring alpha-smooth muscle actin gene expression at 10 nM by quantitative RT-PCR analysis. In kind it is functional, cell-based. Particulars: filed as antagonist.

Assay [4] has as its target Frizzled-1 (Rattus norvegicus) (UniProt Q08463). Description: Agonist activity at rat frizzled-1 expressed in human HEK293superTOP flash cells by luciferase reporter gene assay. In kind it is cell-based. Particulars: HEK293.
Assay [5] shares this target. Description: Antagonist activity at Wnt3a-stimulated rat frizzled-1 expressed in human HEK293superTOP flash cells at 10 nM incubated for 24 hrs by luciferase reporter gene assay relative to control. The following applies: HEK293, filed as antagonist. In kind it is cell-based.
The target in assay [6] is Frizzled-2 (Rattus norvegicus) (UniProt Q08464). Nature of the assay: Agonist activity at rat frizzled-2 expressed in CHO cells by luciferase reporter gene assay. In kind it is cell-based.
For assay [7] the target is unchanged. Description: Agonist activity at rat frizzled-2 expressed in African green monkey COS7 cells by luciferase reporter gene assay. In kind it is cell-based.
The species entered for the next assay is Rattus norvegicus. Description: Selectivity index, ratio of IC50 for Wnt3a-stimulated rat frizzled-1 expressed in human HEK293superTOPFlash cells to IC50 for Wnt3a-stimulated rat frizzled-2 expressed in human HEK293superTOPFlash cells. In kind it is cell-based.
Assay [8] has as its system Mus musculus. Description: Cardioprotective activity against myocardial infarction Swiss mouse model assessed as reduction in infarction expansion in heart at 6 ug/kg/day, sc via osmotic pumps for 5 weeks by macroscopic analysis. In kind it is functional, organism-based. Particulars: dose 6.0 µg/kg/day.
Assay [9] relates to Mus musculus. Description: Cardioprotective activity against myocardial infarction Swiss mouse model assessed as ventricular dilation at 6 ug/kg/day, sc via osmotic pumps for 5 weeks by macroscopic analysis. In kind it is functional, organism-based. The following applies: dose 6.0 µg/kg/day.
Assay [10] has as its system Mus musculus. Description: Cardioprotective activity against myocardial infarction Swiss mouse model assessed as reduction in infarct area in heart at 6 ug/kg/day, sc via osmotic pumps for 2 to 5 weeks by immunohistochemical staining analysis. In kind it is functional, organism-based. Particulars: dose 6.0 µg/kg/day, time 2-5 weeks.
The subject of assay [11] is Mus musculus. Nature of the assay: Cardioprotective activity against myocardial infarction Swiss mouse model assessed as increase in infarct area thickness in heart at 6 ug/kg/day, sc via osmotic pumps for 2 to 5 weeks by immunohistochemical staining analysis. In kind it is functional, organism-based. The following applies: dose 6.0 µg/kg/day, time 2-5 weeks.

The source made the active and inactive calls. No cut-off for these calls is given here. Where a SMILES comes first, the peptide text is derived from it.

Frizzled-1 (Rattus norvegicus), sequence (Q08463 whole entry): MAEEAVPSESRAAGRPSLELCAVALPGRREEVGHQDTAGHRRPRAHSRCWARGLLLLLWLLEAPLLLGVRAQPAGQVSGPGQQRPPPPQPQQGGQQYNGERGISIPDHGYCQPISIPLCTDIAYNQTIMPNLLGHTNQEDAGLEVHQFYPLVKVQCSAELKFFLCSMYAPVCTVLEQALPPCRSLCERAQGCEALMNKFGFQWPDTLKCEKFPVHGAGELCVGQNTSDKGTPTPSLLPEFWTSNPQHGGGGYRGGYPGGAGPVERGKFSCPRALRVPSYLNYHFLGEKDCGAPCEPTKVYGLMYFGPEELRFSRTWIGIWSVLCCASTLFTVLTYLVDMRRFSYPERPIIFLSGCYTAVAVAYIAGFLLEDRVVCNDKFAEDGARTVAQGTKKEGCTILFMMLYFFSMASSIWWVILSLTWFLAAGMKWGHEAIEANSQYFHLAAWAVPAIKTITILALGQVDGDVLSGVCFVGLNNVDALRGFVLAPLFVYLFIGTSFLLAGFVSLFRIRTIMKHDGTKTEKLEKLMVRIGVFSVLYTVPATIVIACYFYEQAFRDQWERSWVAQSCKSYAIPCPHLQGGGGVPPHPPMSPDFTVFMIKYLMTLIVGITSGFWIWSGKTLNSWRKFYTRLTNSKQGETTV
Frizzled-2 (Rattus norvegicus), sequence (Q08464 29-570 limits assumed): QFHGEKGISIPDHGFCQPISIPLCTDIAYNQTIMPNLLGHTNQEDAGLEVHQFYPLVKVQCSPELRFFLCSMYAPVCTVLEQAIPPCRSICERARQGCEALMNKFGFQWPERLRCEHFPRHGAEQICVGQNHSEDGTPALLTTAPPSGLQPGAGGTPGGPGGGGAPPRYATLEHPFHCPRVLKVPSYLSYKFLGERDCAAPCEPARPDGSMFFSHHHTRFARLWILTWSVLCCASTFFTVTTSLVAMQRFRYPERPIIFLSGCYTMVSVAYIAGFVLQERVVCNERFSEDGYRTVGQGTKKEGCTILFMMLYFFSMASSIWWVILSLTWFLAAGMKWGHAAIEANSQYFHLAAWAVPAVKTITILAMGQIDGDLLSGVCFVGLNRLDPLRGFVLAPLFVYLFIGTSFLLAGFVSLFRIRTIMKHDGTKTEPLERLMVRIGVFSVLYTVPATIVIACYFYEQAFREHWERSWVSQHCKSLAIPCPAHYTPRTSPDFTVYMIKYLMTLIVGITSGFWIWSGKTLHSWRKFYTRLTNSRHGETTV
Frizzled-1 (Homo sapiens), sequence (Q9UP38 70-647 limits assumed): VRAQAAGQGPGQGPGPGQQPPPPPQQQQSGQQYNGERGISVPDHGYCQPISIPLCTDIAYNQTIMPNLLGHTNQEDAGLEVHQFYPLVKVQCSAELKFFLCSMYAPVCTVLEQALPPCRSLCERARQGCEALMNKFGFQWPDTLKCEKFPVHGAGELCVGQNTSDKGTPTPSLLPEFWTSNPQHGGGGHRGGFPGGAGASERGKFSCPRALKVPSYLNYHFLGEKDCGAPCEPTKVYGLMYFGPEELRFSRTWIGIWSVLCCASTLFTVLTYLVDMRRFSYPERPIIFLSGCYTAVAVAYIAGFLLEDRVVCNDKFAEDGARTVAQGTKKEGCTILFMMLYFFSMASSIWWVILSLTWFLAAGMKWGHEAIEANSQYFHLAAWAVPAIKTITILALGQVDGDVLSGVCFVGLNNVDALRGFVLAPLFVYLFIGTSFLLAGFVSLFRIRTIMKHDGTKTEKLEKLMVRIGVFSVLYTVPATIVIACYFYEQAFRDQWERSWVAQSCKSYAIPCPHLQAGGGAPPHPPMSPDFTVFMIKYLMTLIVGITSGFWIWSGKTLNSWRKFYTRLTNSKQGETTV
Frizzled-2 (Homo sapiens), sequence (Q14332 24-565 limits assumed): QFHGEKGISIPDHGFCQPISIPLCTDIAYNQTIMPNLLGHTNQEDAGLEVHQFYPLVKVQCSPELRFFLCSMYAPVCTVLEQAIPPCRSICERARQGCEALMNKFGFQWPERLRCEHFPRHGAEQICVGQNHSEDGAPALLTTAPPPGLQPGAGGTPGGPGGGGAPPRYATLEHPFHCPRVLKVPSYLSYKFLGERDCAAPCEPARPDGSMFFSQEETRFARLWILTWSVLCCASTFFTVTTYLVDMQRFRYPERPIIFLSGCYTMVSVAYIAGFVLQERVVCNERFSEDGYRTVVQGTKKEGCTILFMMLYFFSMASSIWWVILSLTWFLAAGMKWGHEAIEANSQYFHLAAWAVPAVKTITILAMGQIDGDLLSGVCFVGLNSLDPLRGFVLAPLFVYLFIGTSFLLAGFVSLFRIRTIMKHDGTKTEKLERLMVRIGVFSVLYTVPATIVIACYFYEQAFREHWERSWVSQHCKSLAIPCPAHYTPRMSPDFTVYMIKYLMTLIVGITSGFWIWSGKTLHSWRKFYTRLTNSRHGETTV

Take `CSCC[C@H](NC(=O)CNC(=O)[C@H](CCC(=O)O)NC(=O)[C@H](CO)NC(=O)[C@@H](NC(=O)[C@H](CCCCN)NC(=O)[C@H](CC(N)=O)NC(=O)[C@H](CS)NC(C)=O)[C@@H](C)O)C(=O)N[C@@H](CC(=O)O)C(=O)NCC(=O)N[C@@H](CS)C(=O)N[C@@H](CCC(=O)O)C(=O)N[C@@H](CC(C)C)C(N)=O` (Ac-CNKTSEGMDGCEL-NH2): the inhibition entry in assay [1] is “Dose-Dependent Effect”; in assay [3] it was 100%; in assay [5], 100%. The inhibition entry in assay [2] is “inactive”. In addition, the result in assay [4], in assay [6] and in assay [7] was inactive. In addition, the Ratio IC50 in the assay filed under Rattus norvegicus came to 100. Moreover, the result in the assay with Mus musculus [8], in the assay on Mus musculus [9], in the assay with Mus musculus [10] and in the assay on Mus musculus [11] was Active.
